Assays:
Assay type in all cases: biochemical
human JAK3 = target: T1, human JAK3 (Homo sapiens, UniProt P52333); assay: JAK3 kinase assay (ELISA or Alphascreen); conditions: read-out: Jak3 inhibition of enzyme activity
T1 construct: The kinase domain of human JAK3 was amplified from U937mRNA; His tag (from the pFastBac HTb vector) (N); made in house; host or cells: baculovirus; Sf9 for virus, High Five insect cells for production
Description: The kinase domain of human JAK3 was amplified from U937mRNA using the polymerase chain reaction with the following primers: […]
JAK3 PCR products were cloned into the pFastBac HTb expression vector (Gibco) via the Xho I and Kpn I sites. The JAK3 plasmid was then transformed into competent DH10Bac cells (Gibco), and the recombinant baculovirus produced prepared for transfection into Sf9 insect cells.
(§1) Baculovirus preparations from each of the JAK family members were infected into five liters of High Five cells (Invitrogen) grown in High Five serum free medium (Invitrogen) to a cell density of approximately 1-2×10^6 cells/ml. Cells are infected with virus at a MOI of 0.8-3.0. Cells were harvested and lysed. JAK kinase domains were purified by affinity chromatography on a Probond (Invitrogen) nickel chelate affinity column.
(§2) Kinase assays were performed in a 96 well capture-based ELISA assay or in 384 well Optiplates (Packard) using an Alphascreen Protein Tyrosine Kinase kit. In either case using approximately 1.5 μg of affinity purified PTK domain in the presence of 50 mM HEPES, pH 7.5, 10 mM MgCl2, 150 mM NaCl and 10 μM-1 mM ATP. The biotinylated substrate biotin-EGPWLEEEEEAYGWMDF-NH2 (SEQ ID NO:9) (final concentration 5 μM) was used as substrate. In the ELISA assay tyrosine phosphorylation was quantitated following transfer to an avidin coated ELISA plate using peroxidase-linked anti-phosphotyrosine antibody PY20. In the Alphascreen assay, Alphascreen phosphotyrosine acceptor beads followed by streptavidin donor beads were added under subdued light. The ELISA plates were read on a BMG Fluorostar, the Alphascreen plates were read on a Packard Fusion Alpha. Inhibitors were added to the assays fifteen minutes prior to the addition of ATP. Inhibitors were added in aqueous […] concentrations never exceeding 1%.

hck = hck (Homo sapiens, UniProt P08631); assay: hck kinase assay (ELISA or Alphascreen); conditions: read-out: hck inhibition of enzyme activity
Procedure: as §2

abl = target: T2, abl (Homo sapiens, UniProt P00519); assay: abl kinase assay (ELISA or Alphascreen); conditions: read-out: abl inhibition of enzyme activity
T2 sequence (P00519 242-493 limits assumed): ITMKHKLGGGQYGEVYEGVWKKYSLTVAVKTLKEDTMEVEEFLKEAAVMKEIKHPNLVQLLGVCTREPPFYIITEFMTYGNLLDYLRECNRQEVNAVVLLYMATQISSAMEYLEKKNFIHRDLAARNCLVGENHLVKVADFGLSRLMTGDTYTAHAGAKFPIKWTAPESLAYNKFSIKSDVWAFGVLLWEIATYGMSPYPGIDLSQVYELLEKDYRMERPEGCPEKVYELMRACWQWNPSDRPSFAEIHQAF
Procedure: as §2

Zap70 = target: T3, Zap70 (Homo sapiens, UniProt P43403); assay: Zap70 kinase assay (ELISA or Alphascreen); conditions: read-out: Zap70 inhibition of enzyme activity
T3 sequence (P43403 338-600 limits assumed): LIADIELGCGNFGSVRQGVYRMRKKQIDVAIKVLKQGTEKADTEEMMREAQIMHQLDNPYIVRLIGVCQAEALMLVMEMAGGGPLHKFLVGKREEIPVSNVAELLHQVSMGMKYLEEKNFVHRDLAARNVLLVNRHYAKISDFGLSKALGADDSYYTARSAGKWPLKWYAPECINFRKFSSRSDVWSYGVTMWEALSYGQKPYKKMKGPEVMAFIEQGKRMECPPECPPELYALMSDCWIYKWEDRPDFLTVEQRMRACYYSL
Procedure: as §2

human JAK2 = target: T4, human JAK2 (Homo sapiens, UniProt O60674); assay: JAK2 kinase assay (ELISA or Alphascreen); conditions: read-out: Jak2 inhibition of enzyme activity
T4 construct: The kinase domain of human JAK2 was amplified from U937mRNA; His tag (from the pFastBac HTc vector) (N); made in house; host or cells: baculovirus; Sf9 for virus, High Five insect cells for production
Description: The kinase domain of human JAK2 was amplified from U937mRNA using the polymerase chain reaction with the following primers: […]
JAK2 PCR products were doped into the pFastBac HTc expression vector (Gibco) via the Sal I and Not I sites. The JAK2 plasmid was than transformed into competent DH10Bac cells (Gibco), and the recombinant baculovirus produced prepared for transfection into Sf9 insect cells.
as §1, §2

fes = fes (Homo sapiens, UniProt P07332); assay: fes kinase assay (ELISA or Alphascreen); conditions: read-out: fes inhibition of enzyme activity
Procedure: as §2

fms = target: T5, fms (Homo sapiens, UniProt P07333); assay: fms kinase assay (ELISA or Alphascreen); conditions: read-out: fms inhibition of enzyme activity
T5 sequence (P07333 582-910 limits assumed): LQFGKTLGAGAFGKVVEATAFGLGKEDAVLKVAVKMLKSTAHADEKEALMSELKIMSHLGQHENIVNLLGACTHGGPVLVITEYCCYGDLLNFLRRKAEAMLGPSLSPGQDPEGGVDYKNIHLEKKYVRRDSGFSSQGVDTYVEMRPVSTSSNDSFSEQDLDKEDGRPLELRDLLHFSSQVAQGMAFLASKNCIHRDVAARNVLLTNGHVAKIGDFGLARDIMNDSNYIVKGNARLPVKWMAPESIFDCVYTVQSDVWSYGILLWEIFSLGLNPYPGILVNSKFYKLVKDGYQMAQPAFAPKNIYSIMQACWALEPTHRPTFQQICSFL
Procedure: as §2

T1 sequence (P52333 822-1111 limits assumed): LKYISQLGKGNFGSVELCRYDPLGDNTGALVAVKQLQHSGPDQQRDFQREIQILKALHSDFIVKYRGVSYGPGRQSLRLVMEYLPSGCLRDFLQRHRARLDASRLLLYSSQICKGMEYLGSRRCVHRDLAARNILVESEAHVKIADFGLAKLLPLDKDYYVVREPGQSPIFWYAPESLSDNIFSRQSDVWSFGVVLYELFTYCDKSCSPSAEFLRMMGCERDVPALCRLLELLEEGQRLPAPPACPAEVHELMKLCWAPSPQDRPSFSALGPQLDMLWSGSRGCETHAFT
hck, sequence (P08631 262-515 limits assumed, species assumed): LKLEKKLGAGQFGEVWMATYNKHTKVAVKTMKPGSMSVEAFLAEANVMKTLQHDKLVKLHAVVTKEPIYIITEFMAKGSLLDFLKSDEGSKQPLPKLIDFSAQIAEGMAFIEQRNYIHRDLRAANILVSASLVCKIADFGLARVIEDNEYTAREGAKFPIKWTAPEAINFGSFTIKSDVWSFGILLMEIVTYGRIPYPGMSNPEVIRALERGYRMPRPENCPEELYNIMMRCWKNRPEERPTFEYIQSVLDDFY
T4 sequence (O60674 849-1124 limits assumed): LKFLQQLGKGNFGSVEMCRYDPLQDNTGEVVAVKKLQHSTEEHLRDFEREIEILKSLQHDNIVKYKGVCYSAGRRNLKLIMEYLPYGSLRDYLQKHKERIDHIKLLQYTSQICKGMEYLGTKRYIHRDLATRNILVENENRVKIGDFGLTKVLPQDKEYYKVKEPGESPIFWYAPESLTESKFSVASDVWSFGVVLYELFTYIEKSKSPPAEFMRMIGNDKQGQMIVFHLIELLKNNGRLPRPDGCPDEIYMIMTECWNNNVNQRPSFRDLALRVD
fes, sequence (P07332 561-822 limits assumed, species assumed): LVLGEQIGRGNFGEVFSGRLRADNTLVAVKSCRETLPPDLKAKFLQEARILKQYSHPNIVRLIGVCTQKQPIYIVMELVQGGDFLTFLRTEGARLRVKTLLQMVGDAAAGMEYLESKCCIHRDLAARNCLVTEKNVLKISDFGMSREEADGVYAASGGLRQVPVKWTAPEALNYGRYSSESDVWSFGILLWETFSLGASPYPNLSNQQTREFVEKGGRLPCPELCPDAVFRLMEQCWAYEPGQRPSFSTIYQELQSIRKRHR

SMILES | inhibition at 10 µM (human JAK3) | inhibition at 10 µM (hck) | inhibition at 10 µM (abl) | inhibition at 10 µM (Zap70) | inhibition at 10 µM (human JAK2) | inhibition at 10 µM (fes) | inhibition at 10 µM (fms)
O=C(NCc1cccc(F)c1)c1cncc(-c2ccc3c(c2)OCO3)c1 | < 50% | < 50% | < 50% | < 50% | < 50% | < 50% | 
O=C(NCc1ccc(Cl)c(Cl)c1)c1cncc(-c2ccc(O)cc2)c1 | < 50% | < 50% | < 50% | < 50% | < 50% | < 50% | 
COc1ccc(NC(=O)c2cncc(-c3cc(OC)c(OC)c(OC)c3)c2)c(OC)c1 |  | < 50% | < 50% | < 50% |  | < 50% | < 50%
O=C(NCCc1ccccc1)c1cncc(-c2cccs2)c1 | < 50% | < 50% | < 50% | < 50% | < 50% | < 50% | 
COc1cc(-c2cncc(C(=O)NCCO)c2)ccc1O | < 50% | < 50% | < 50% | < 50% | < 50% | < 50% | 
COc1ccc(NC(=O)c2cncc(-c3cccs3)c2)c(OC)c1 |  | < 50% | < 50% | < 50% | < 50% | < 50% | < 50%
Cc1ccc(CNC(=O)c2cncc(-c3ccc(O)cc3)c2)cc1 | < 50% | < 50% | < 50% | < 50% | < 50% | < 50% | 
COc1cc(-c2cncc(C(=O)NCCO)c2)cc(OC)c1OC |  | < 50% | < 50% | ≥ 50% |  | < 50% | < 50%
CC(C)NC(=O)c1cncc(-c2ccc(O)cc2)c1 |  | ≥ 50% | < 50% | < 50% | < 50% | < 50% | < 50%
O=C(NCCc1ccccc1)c1cncc(-c2ccc3c(c2)OCO3)c1 | < 50% | < 50% | < 50% | < 50% | < 50% | < 50% | 
Cc1cc(F)ccc1NC(=O)c1cncc(-c2ccncc2)c1 |  | < 50% | < 50% | < 50% |  | < 50% | < 50%
COc1cccc(-c2cncc(C(=O)N[C@H](C)c3ccccc3)c2)c1 | < 50% | < 50% | < 50% | < 50% | < 50% | < 50% | 
CC(NC(=O)c1cncc(-c2ccc(O)cc2)c1)c1ccc(F)cc1 (stereo not drawn) | < 50% | < 50% | < 50% | < 50% | < 50% | < 50% | 
COc1ccc(CNC(=O)c2cncc(-c3cccnc3)c2)cc1 | < 50% | < 50% | < 50% | < 50% | < 50% | < 50% | 
COc1cccc(-c2cncc(C(=O)N[C@@H](C)c3ccccc3)c2)c1 | < 50% | < 50% | < 50% | < 50% | < 50% | < 50% | 
COc1cc(NC(=O)c2cncc(-c3cccs3)c2)cc(OC)c1OC |  | < 50% | < 50% | < 50% | < 50% | < 50% | < 50%
COc1cc(-c2cncc(C(=O)NCc3ccncc3)c2)c(Cl)c(OC)c1OC |  | < 50% | < 50% | < 50% | < 50% | < 50% | < 50%
Cc1ccccc1NC(=O)c1cncc(-c2cccs2)c1 | < 50% | ≥ 50% | < 50% | < 50% | < 50% | < 50% | 
COc1cc(-c2cncc(C(=O)Nc3ccccc3)c2)c(Cl)c(OC)c1OC | < 50% | < 50% | < 50% | < 50% | < 50% | < 50% | 
COc1ccc(NC(=O)c2cncc(-c3ccc(O)cc3)c2)c(OC)c1 | < 50% | < 50% | < 50% | < 50% | < 50% |  | 
C[C@@H](NC(=O)c1cncc(-c2cccs2)c1)c1ccccc1 | < 50% | < 50% | < 50% | < 50% | < 50% | < 50% | 
O=C(NCCO)c1cncc(-c2ccc3c(c2)OCO3)c1 | < 50% | < 50% | < 50% | < 50% | < 50% |  | 
O=C(NCc1ccc(F)cc1)c1cncc(-c2ccncc2)c1 |  | < 50% | < 50% | < 50% |  | ≥ 50% | < 50%
Cc1cc(F)ccc1NC(=O)c1cncc(-c2ccc(F)cc2)c1 | < 50% | < 50% | < 50% | < 50% | < 50% | < 50% | 
O=C(NCc1ccc(F)cc1)c1cncc(-c2cccnc2)c1 |  | < 50% | < 50% | < 50% |  | < 50% | < 50%
Cc1cc(F)ccc1NC(=O)c1cncc(-c2cccnc2)c1 |  | < 50% | < 50% | < 50% |  | < 50% | < 50%
O=C(NCc1cccc(F)c1)c1cncc(-c2ccc(O)cc2)c1 | < 50% | < 50% | < 50% | < 50% |  | < 50% | 
Cc1ccccc1NC(=O)c1cncc(-c2ccc3c(c2)OCO3)c1 | < 50% | ≥ 50% | < 50% | < 50% | < 50% | < 50% | 
